Source: US9714244B2, “Substituted pyrido[4,3-d]pyrimidines as Wee-1 inhibitors” (ALMAC DISCOVERY LIMITED, priority 2013, dated 2017)

What was measured:
Format in all cases: biochemical
Conditions in all cases: 300-350 nM
[1] = target: NEK1 (Homo sapiens (Human), UniProt Q96PY6); experiment: SelectScreen Kinase Profiling: NEK1
From the text: (§1) Table 2 below highlights the selectivity of a representative compound of the invention against a panel of 50 kinases (assessed using the Invitrogen SelectScreen® Kinase Profiling Service).

[2] = target: JAK3 (Homo sapiens (Human), UniProt P52333); experiment: SelectScreen Kinase Profiling: JAK3
From the text: as §1

[3] = target: CSNK2A1 (CK2 alpha 1) (Homo sapiens (Human), UniProt P68400); experiment: SelectScreen Kinase Profiling: CSNK2A1
From the text: as §1

[4] = target: MAPK14 (p38 alpha) (Homo sapiens (Human), UniProt Q16539); experiment: SelectScreen Kinase Profiling: MAPK14
From the text: as §1

[5] = target: ERBB2 (HER2) (Homo sapiens (Human), UniProt P04626); experiment: SelectScreen Kinase Profiling: ERBB2
From the text: as §1

[6] = target: FRAP1 (mTOR) (Homo sapiens (Human), UniProt P42345); experiment: SelectScreen Kinase Profiling: FRAP1
From the text: as §1

[7] = target: PAK4 (Homo sapiens (Human), UniProt O96013); experiment: SelectScreen Kinase Profiling: PAK4
From the text: as §1

[8] = target: MARK2 (Homo sapiens (Human), UniProt Q7KZI7); experiment: SelectScreen Kinase Profiling: MARK2
From the text: as §1

[9] = target: PRKCB1 (PKC beta I) (Homo sapiens (Human), UniProt P05771); experiment: SelectScreen Kinase Profiling: PRKCB1
From the text: as §1

Chain of PRKCB1 (PKC beta I) (P05771 whole entry): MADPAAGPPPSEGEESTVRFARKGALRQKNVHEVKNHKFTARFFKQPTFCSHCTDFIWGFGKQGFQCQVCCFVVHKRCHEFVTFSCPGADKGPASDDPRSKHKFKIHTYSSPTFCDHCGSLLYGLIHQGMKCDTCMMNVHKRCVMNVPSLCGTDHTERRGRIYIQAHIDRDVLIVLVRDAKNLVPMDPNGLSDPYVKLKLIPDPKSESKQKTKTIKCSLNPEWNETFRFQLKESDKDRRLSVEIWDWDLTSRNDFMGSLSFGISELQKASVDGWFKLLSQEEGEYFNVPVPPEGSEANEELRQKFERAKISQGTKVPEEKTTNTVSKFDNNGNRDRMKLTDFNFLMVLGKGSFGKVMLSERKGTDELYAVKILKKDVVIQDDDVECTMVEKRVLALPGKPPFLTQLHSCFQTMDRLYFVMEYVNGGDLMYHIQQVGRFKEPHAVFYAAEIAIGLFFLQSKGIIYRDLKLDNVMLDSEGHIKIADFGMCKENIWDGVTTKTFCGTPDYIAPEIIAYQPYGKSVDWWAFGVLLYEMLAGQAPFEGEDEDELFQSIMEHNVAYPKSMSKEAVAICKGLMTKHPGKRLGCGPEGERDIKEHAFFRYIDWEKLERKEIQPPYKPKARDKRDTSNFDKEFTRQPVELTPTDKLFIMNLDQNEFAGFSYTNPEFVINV
Chain of MARK2 (Q7KZI7 whole entry): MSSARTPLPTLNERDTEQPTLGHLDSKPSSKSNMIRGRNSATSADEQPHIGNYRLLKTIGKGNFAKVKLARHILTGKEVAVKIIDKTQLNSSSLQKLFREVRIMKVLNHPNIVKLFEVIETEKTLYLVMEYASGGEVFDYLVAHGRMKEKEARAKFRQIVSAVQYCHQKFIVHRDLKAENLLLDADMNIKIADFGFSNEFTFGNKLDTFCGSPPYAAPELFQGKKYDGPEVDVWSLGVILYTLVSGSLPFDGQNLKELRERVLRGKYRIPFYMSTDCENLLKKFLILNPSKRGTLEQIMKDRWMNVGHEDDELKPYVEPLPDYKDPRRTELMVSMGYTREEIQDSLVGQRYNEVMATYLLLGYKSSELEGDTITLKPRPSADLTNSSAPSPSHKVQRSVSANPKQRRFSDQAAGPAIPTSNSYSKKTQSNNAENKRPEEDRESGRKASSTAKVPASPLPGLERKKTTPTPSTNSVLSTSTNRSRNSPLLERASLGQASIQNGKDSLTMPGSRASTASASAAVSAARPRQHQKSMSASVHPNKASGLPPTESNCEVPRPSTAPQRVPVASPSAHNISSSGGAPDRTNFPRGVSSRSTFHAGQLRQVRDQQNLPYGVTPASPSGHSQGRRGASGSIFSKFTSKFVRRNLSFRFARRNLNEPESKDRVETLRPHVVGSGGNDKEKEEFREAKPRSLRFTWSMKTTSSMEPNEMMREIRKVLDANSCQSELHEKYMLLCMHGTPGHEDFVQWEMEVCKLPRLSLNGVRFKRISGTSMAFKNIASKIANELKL
Chain of PAK4 (O96013 whole entry): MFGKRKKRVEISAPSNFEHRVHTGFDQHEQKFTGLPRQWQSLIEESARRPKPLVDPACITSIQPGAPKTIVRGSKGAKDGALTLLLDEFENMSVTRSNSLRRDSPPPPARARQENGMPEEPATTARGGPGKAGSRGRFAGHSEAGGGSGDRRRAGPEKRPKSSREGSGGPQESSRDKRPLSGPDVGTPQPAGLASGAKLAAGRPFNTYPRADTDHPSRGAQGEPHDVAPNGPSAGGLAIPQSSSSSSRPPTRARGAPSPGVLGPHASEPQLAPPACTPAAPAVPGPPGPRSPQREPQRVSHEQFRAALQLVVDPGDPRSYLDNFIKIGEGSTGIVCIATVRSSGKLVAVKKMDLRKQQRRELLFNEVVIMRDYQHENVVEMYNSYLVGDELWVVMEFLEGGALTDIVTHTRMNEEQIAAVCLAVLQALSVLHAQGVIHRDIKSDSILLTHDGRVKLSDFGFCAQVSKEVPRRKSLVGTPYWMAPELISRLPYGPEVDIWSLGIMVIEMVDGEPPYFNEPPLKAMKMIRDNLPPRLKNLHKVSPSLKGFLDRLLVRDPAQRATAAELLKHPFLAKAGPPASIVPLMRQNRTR
Chain of NEK1 (Q96PY6 whole entry): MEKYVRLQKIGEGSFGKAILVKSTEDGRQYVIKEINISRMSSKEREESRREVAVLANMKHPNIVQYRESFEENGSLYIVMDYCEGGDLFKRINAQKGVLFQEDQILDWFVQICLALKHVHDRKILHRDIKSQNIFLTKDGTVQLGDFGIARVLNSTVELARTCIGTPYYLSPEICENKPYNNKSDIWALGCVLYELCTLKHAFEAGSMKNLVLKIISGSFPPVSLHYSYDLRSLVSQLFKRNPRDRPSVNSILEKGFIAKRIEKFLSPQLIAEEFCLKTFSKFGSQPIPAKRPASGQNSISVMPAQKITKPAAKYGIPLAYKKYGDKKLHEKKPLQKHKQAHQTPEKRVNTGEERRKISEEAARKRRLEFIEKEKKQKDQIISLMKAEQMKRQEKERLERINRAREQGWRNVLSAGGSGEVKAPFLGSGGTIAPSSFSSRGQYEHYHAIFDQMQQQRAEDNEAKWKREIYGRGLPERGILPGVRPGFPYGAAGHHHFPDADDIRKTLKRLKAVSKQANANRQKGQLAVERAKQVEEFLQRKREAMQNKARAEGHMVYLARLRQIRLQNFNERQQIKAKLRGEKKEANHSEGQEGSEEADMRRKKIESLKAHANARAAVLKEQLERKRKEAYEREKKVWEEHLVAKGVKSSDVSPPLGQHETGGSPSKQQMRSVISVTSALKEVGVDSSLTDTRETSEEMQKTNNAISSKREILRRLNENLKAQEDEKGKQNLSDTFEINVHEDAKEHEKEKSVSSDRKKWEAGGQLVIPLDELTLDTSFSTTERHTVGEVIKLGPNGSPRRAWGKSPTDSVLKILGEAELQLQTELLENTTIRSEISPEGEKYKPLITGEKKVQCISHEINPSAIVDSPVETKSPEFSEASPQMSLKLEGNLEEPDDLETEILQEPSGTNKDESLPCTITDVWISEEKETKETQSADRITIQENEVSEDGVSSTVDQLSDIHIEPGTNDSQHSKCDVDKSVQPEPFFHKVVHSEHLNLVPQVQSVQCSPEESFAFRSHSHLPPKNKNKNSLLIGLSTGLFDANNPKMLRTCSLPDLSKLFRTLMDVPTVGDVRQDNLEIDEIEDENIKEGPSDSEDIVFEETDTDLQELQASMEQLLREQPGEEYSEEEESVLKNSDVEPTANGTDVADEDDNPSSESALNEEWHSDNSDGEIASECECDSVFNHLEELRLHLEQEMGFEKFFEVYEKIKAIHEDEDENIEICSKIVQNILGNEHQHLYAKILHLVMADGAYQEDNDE
Chain of CSNK2A1 (CK2 alpha 1) (P68400 whole entry): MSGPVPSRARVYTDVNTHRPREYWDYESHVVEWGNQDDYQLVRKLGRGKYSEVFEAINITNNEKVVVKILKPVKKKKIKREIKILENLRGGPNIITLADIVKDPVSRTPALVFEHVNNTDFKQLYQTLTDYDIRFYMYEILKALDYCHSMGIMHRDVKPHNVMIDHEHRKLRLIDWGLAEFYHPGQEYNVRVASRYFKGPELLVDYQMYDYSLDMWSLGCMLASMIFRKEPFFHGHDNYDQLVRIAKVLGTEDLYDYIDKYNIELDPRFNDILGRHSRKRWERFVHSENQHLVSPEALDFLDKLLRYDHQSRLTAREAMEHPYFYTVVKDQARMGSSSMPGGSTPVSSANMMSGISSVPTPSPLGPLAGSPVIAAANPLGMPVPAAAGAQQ
Chain of ERBB2 (HER2) (P04626 23-1255): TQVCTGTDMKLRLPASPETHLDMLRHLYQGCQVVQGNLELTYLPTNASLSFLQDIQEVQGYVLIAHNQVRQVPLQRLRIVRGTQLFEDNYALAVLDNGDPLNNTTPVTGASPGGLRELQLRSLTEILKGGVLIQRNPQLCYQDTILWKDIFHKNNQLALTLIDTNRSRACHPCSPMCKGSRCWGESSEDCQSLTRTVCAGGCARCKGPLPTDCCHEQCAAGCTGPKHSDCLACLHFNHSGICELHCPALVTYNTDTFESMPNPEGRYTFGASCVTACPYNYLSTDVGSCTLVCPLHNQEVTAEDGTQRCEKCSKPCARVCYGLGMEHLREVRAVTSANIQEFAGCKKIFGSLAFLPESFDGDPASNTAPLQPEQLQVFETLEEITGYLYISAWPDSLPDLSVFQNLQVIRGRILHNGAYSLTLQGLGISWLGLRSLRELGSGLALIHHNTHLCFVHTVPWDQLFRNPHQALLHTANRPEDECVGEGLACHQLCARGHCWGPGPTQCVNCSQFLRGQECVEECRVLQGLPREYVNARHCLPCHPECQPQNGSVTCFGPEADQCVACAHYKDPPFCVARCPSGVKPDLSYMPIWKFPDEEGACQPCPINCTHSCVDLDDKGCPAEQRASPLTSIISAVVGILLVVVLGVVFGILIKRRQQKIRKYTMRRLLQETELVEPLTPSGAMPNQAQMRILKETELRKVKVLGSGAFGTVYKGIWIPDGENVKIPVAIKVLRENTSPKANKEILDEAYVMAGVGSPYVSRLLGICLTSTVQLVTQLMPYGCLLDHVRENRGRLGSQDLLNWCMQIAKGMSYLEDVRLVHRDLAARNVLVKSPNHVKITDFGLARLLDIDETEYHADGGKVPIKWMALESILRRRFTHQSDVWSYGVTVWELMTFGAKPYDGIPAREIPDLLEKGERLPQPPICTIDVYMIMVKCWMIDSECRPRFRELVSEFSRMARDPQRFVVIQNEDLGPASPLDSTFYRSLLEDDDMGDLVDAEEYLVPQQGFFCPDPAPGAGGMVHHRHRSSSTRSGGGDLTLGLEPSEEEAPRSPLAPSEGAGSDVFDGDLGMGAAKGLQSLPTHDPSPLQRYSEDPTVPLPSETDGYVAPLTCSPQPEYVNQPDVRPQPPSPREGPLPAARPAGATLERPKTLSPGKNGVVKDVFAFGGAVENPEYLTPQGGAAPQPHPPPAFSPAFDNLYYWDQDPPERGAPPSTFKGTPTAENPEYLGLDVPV

O=c1c2cnc(Nc3ccc(N4CCNCC4)cc3)nc2ccn1-c1c(Cl)cccc1Cl [Example 1, 6-(2,6-Dichlorophenyl)-2-((4-(piperazin-1-yl)phenyl)amino)pyrido[4,3-d]pyrimidin-5(6H)-one]
− (Inhibition <75% @ 300-350 nM): Inhibition NEK1 [1] | Inhibition JAK3 [2] | Inhibition CSNK2A1 (CK2 alpha 1) [3] | Inhibition MAPK14 (p38 alpha) [4] | Inhibition ERBB2 (HER2) [5] | Inhibition FRAP1 (mTOR) [6] | Inhibition PAK4 [7] | Inhibition MARK2 [8] | Inhibition PRKCB1 (PKC beta I) [9]
